The values that follow come from PMC8194517, “B^0AT1 Amino Acid Transporter Complexed With SARS-CoV-2 Receptor ACE2 Forms a Heterodimer Functional Unit: In Situ Conformation Using Radiation Inactivation Analysis” (Function, 2021).

This assay deals with T1, B^0AT1 ([ACE2:B^0AT1] heterodimer functional unit).
T1 construct: gene SLC6A19; native, ileal apical brush border membrane vesicles, lyophilized and reconstituted; full-length; with Angiotensin-converting enzyme 2
In words: radiotracer uptake into brush border membrane vesicles, […] s initial rate. Format: biochemical, Oryctolagus cuniculus. The note with it: labelled compound; Na+-dependent zero-trans influx, 100 mM NaSCN, pH 7.5, 22°C; apparent Km, major component after subtracting diffusion and a minor 'Other' component.

With `C[C@H](N)C(=O)O` [L-alanine], the Michaelis-Menten constant (Km) (commonly the concentration of substrate that gives half-maximal velocity) was found to be 6.9 ± 0.8 mM.
